{"source": "patent US12714715B2", "about": "“Agent for treating myopia, preventing myopia and/or suppressing myopia progression” (SANTEN PHARMACEUTICAL CO., LTD., priority 2020, dated 2026)", "key": {"[1]": {"system": "guinea pig myopia model", "experiment": "Test on suppression of myopia progression (axial length elongation and refractive error) in guinea pig myopia model", "format": "in vivo, guinea pig (Slc:Hartley)", "conditions": "for Difference of axial lengths / Difference of refraction: 10 μL topical to goggled right eye once daily 14 days, right eye − left eye, average n=6; for Difference of axial lengths / Difference of refraction / Suppression rate of axial length elongation / Suppression rate of refraction / Suppression rate of refractive error: day 14; for Suppression rate of axial length elongation / Suppression rate of refraction / Suppression rate of refractive error: vs vehicle control group", "description": "According to the following procedures, the effect of AFDX0250 on the suppression of myopia progression (the axial length elongation and the refractive error) was evaluated.\nAFDX0250 was dissolved in purified water with a buffering agent and a tonicity agent to prepare 0.5% AFDX0250 solution. 1 mol/L sodium hydroxide reagent solution or dilute hydrochloric acid was added to the solution to adjust the pH thereof to neutral. Also, a buffering agent and a tonicity agent were dissolved in purified water to prepare a neutral vehicle. 9.8 mL of the vehicle was mixed with 0.2 mL of 0.5% AFDX0250 solution and stirred to prepare 0.01% AFDX0250 solution. 3 mL, 4 mL and 4.5 mL of the vehicles were mixed with 2 mL, 1 mL and 0.5 mL of 0.01% AFDX0250 solutions, respectively, and stirred to prepare 0.004%, 0.002% and 0.001% AFDX0250 solutions.\nA test tube with a diameter of 18 mm was cut off at the level of 10 mm from the bottom, and the cut-off bottom part was glued to one side of Velcro tape (about 20 mm square) with a hole of an appropriate diameter in the center with an adhesive agent to prepare a lens (goggle). 3-week-old guinea pigs (Slc:Hartley) (n=30) were obtained, and the prepared goggle was covered to the right eye of each guinea pig with an adhesive agent to induce myopia to the guinea pigs. The left eye thereof without goggle was used as control.\nThe […] group, 0.004% AFDX0250 solution administration group, […] group (control group) (n=6 per group). In the AFDX0250 solution administration groups, 10 μL of the AFDX0250 solution in each concentration was topically administered to the right eye of each guinea pig once daily for 14 days from the day when the right eye was covered with the goggle (day 0) to day 13. In the control group, 10 μL of the vehicle was topically administered to the right eye of each guinea pig once daily for 14 days from the day when the right eye was covered with the goggle (day 0) to day 13. In the all groups, 10 μL of the vehicle was topically administered to the left eye at the same frequency of administration as that of each group daily for 14 days from day 0 to day 13. The guinea pigs were reared under a normal rearing condition.\nOn day 14 from the myopia induction, the axial lengths of right and left eyeballs were measured with an ultrasound axial length measurement device ECHOSCAN US-500 (A-scan) (NIDEK CO., LTD.), and the refractions were measured with the auto refractometer AR-1a (NIDEK CO., LTD.). The difference of axial lengths and the suppression rate of the axial length elongation as well as the difference of refraction and the suppression rate of the refractive error were calculated according to the following formulae. The calculation was performed in Microsoft Excel. Difference of axial lengths (mm)=Axial length of right eye (mm)−Axial length of left eye (mm) Suppression rate of axial length elongation (%)=(1−Difference of axial lengths in AFDX0250 solution administration group/Difference of axial lengths in control group)×100 (Formula) Difference of refraction (D)=Refraction of right eye (D)−Refraction of left eye (D) Suppression rate of refractive error (%)=(1−Difference of refraction in AFDX0250 solution administration group/Difference of refraction in control group)×100 (Formula) (Test Result)\nAFDX0250 was dissolved in purified water with a buffering agent and a tonicity agent to prepare 0.5% AFDX0250 solution. 1 mol/L sodium hydroxide reagent solution or dilute hydrochloric acid was added to the solution to adjust the pH thereof to neutral. Also, a buffering agent and a tonicity agent were dissolved in purified water to prepare a neutral vehicle. 4 mL and 4.8 mL of vehicles were mixed with 1 mL and 0.2 mL of 0.5% AFDX0250 solutions, respectively, and stirred to prepare 0.1% and 0.02% of AFDX0250 solutions. Also, 4 mL of the vehicle was mixed with 1 mL of 0.02% AFDX0250 solution and stirred to prepare 0.004% AFDX0250 solution. […]"}, "[2]": {"system": "guinea pigs", "experiment": "Evaluation of mydriatic action (pupil diameter, pupillary light reflex) after repeated topical administration to one eye", "format": "in vivo, guinea pig", "conditions": "for Pupil diameter before administration / Decreased pupillary light reflex / Maximum pupil diameter / Measurement time of maximum pupil diameter: 10 μL topical to left eye once daily 5 days; for Pupil diameter before administration: before administration on day 5, average of 3 guinea pigs; for Decreased pupillary light reflex / Measurement time of maximum pupil diameter: day 5; for Maximum pupil diameter: longest average diameter among measurement times on day 5", "description": "An atropine solution was repeatedly topically administered to one eye of a guinea pig to evaluate the effect of the solution on mydriasis.\nAtropine sulfate hydrate and glycerin were dissolved in water for injection to prepare 0.001%, 0.0003% and 0.0001% atropine solutions without adjusting the pH.\nEach of the prepared solutions was topically administered to the left eye of guinea pigs (the left eyes of 3 guinea pigs for each solution) in a volume of 10 μL once daily for 5 days. The pupil diameter of each guinea pig was measured before the administration on day 5 as well as 1, 2 and 4 hours after the administration to observe the pupillary light reflex. The measured pupil diameters of each guinea pig at each measurement time were averaged to obtain the average value. The obtained average value was defined as the average pupil diameter. Among each average pupil diameter at each measurement time, the longest diameter was defined as the maximum pupil diameter."}, "[3]": {"conditions": "Example 1, 0.001% solution, topical once daily 14 days"}, "[4]": {"conditions": "Example 1, 0.002% solution, topical once daily 14 days"}, "[5]": {"conditions": "Example 1, 0.004% solution, topical once daily 14 days"}, "[6]": {"conditions": "Example 1, 0.01% solution, topical once daily 14 days"}, "[7]": {"conditions": "Example 2, 0.004% solution, topical once daily 14 days"}, "[8]": {"conditions": "Example 2, 0.02% solution, topical once daily 14 days"}, "[9]": {"conditions": "Example 2, 0.1% solution, topical once daily 14 days"}, "[10]": {"conditions": "Example 2, 0.5% solution, topical once daily 14 days"}, "[11]": {"conditions": "Comparative Example 3, 0.0001% solution"}, "[12]": {"conditions": "Comparative Example 3, 0.0003% solution"}, "[13]": {"conditions": "Comparative Example 3, 0.001% solution"}}}
{"smiles": "CCN(CC)CC1CCCCN1CC(=O)N1c2ccccc2C(=O)Nc2cccnc21", "note": "(single isomer, unassigned; (+)) [AFDX0250, (+)-11-[2-[2-[(diethylamino)methyl]-1-piperidinyl]acetyl]-5,11-dihydro-6H-pyrido[2,3-b][1,4]benzodiazepin-6-one]", "values": [{"measurement": "Difference of axial lengths", "setting": "[1]; Example 1, 0.001% solution", "result": 0.17, "unit": "mm"}, {"measurement": "Difference of refraction", "setting": "[1]; Example 1, 0.001% solution", "result": "−6.12", "unit": "D"}, {"measurement": "Suppression rate of axial length elongation", "setting": "[1]; [3]", "result": 15.85, "unit": "%"}, {"measurement": "Suppression rate of refraction", "setting": "[1]; [3]", "result": 22.78, "unit": "%"}, {"measurement": "Difference of axial lengths", "setting": "[1]; Example 1, 0.002% solution", "result": 0.09, "unit": "mm"}, {"measurement": "Difference of refraction", "setting": "[1]; Example 1, 0.002% solution", "result": "−2.78", "unit": "D"}, {"measurement": "Suppression rate of axial length elongation", "setting": "[1]; [4]", "result": 55.46, "unit": "%"}, {"measurement": "Suppression rate of refraction", "setting": "[1]; [4]", "result": 64.95, "unit": "%"}, {"measurement": "Difference of axial lengths", "setting": "[1]; Example 1, 0.004% solution", "result": 0.07, "unit": "mm"}, {"measurement": "Difference of refraction", "setting": "[1]; Example 1, 0.004% solution", "result": "−2.39", "unit": "D"}, {"measurement": "Suppression rate of axial length elongation", "setting": "[1]; [5]", "result": 63.39, "unit": "%"}, {"measurement": "Suppression rate of refraction", "setting": "[1]; [5]", "result": 69.80, "unit": "%"}, {"measurement": "Difference of axial lengths", "setting": "[1]; Example 1, 0.01% solution", "result": 0.06, "unit": "mm"}, {"measurement": "Difference of refraction", "setting": "[1]; Example 1, 0.01% solution", "result": "−3.63", "unit": "D"}, {"measurement": "Suppression rate of axial length elongation", "setting": "[1]; [6]", "result": 68.58, "unit": "%"}, {"measurement": "Suppression rate of refraction", "setting": "[1]; [6]", "result": 54.19, "unit": "%"}, {"measurement": "Difference of axial lengths", "setting": "[1]; Example 2, 0.004% solution", "result": 0.07, "unit": "mm"}, {"measurement": "Difference of refraction", "setting": "[1]; Example 2, 0.004% solution", "result": "−3.25", "unit": "D"}, {"measurement": "Suppression rate of axial length elongation", "setting": "[1]; [7]", "result": 66.85, "unit": "%"}, {"measurement": "Suppression rate of refractive error", "setting": "[1]; [7]", "result": 59.27, "unit": "%"}, {"measurement": "Difference of axial lengths", "setting": "[1]; Example 2, 0.02% solution", "result": 0.05, "unit": "mm"}, {"measurement": "Difference of refraction", "setting": "[1]; Example 2, 0.02% solution", "result": "−2.52", "unit": "D"}, {"measurement": "Suppression rate of axial length elongation", "setting": "[1]; [8]", "result": 74.16, "unit": "%"}, {"measurement": "Suppression rate of refractive error", "setting": "[1]; [8]", "result": 68.43, "unit": "%"}, {"measurement": "Difference of axial lengths", "setting": "[1]; Example 2, 0.1% solution", "result": 0.04, "unit": "mm"}, {"measurement": "Difference of refraction", "setting": "[1]; Example 2, 0.1% solution", "result": "−2.05", "unit": "D"}, {"measurement": "Suppression rate of axial length elongation", "setting": "[1]; [9]", "result": 79.21, "unit": "%"}, {"measurement": "Suppression rate of refractive error", "setting": "[1]; [9]", "result": 74.35, "unit": "%"}, {"measurement": "Difference of axial lengths", "setting": "[1]; Example 2, 0.5% solution", "result": 0.02, "unit": "mm"}, {"measurement": "Difference of refraction", "setting": "[1]; Example 2, 0.5% solution", "result": "−2.03", "unit": "D"}, {"measurement": "Suppression rate of axial length elongation", "setting": "[1]; [10]", "result": 88.48, "unit": "%"}, {"measurement": "Suppression rate of refractive error", "setting": "[1]; [10]", "result": 74.64, "unit": "%"}, {"measurement": "Effect on the axial length elongation and the refractive error (summary in words)", "setting": "[1]; summary of Examples 1 and 2 (AFDX0250) and Comparative Examples 1 and 2 (AFDX0116), topical once daily 14 days", "result": "strongly suppressed the axial length elongation and the refractive error"}, {"measurement": "Mydriatic action (pupil diameter and pupillary light reflex, in words)", "setting": "[2]; guinea pig, in vivo", "result": "increased the pupil diameter and decreased the pupillary light reflex"}]}
{"smiles": "CN1[C@@H]2CC[C@H]1CC(OC(=O)C(CO)c1ccccc1)C2.CN1[C@@H]2CC[C@H]1CC(OC(=O)C(CO)c1ccccc1)C2.O.O=S(=O)(O)O", "note": "(stereo partly shown) [atropine, Atropine sulfate hydrate]", "values": [{"measurement": "Pupil diameter before administration", "setting": "[2]; [11]", "result": 2.3, "unit": "mm"}, {"measurement": "Decreased pupillary light reflex", "setting": "[2]; [11]", "result": "0/3"}, {"measurement": "Maximum pupil diameter", "setting": "[2]; [11]", "result": 2.8, "unit": "mm"}, {"measurement": "Pupil diameter before administration", "setting": "[2]; [12]", "result": 3.0, "unit": "mm"}, {"measurement": "Decreased pupillary light reflex", "setting": "[2]; [12]", "result": "1/3"}, {"measurement": "Measurement time of maximum pupil diameter", "setting": "[2]; [12]", "result": 1, "unit": "h"}, {"measurement": "Maximum pupil diameter", "setting": "[2]; [12]", "result": 3.8, "unit": "mm"}, {"measurement": "Mydriatic action (pupil diameter and pupillary light reflex, in words)", "setting": "[2]; Comparative Example 3, 0.001% and 0.0003% atropine solution administration groups", "result": "the increased pupil diameter and the decreased pupillary light reflex were found"}, {"measurement": "Pupil diameter before administration", "setting": "[2]; [13]", "result": 2.6, "unit": "mm"}, {"measurement": "Decreased pupillary light reflex", "setting": "[2]; [13]", "result": "3/3"}, {"measurement": "Measurement time of maximum pupil diameter", "setting": "[2]; [13]", "result": 1, "unit": "h"}, {"measurement": "Maximum pupil diameter", "setting": "[2]; [13]", "result": 4.9, "unit": "mm"}]}
